Patent publication US20240360185A1, “AV3 MUTANT INSECTICIDAL POLYPEPTIDES AND METHODS FOR PRODUCING AND USING SAME” (Vestaron Corporation, priority 2018, published 2024)
Several values for one entry are separate records, joined by “and”; a condition that tells them apart may be missing. Equal values may be shown once. Entries after “also recorded” stand apart in the source; their conditions may differ. Ends that are not written are not given here.

Columns and labels:
Aedes aegypti = assay: adult mosquito topical bioassay; type: in vivo; conditions: for activity relative to native Av3: 3 hours post application; for Knock-down 50 at 3 hr, Average: Table 5; for KD50 at 3-hours: post topical application; for Knock-down 50 at 3 hr: Table 5, single determinations; for paralysis and kill of adult mosquitos upon topical application: in vivo; for synergy with permethrin: permethrin 500 ppb
Protocol: Native Av3, R1K mutant Av3 (Av3a) and R1K+AC-Val double mutant Av3 (Av3a-C1, or Av3b) were evaluated in the adult mosquito topical bioassay. The adult mosquitoes were ordered from Benzon Research. The adult mosquitoes were immobilized using CO2 gas and transferred onto a CO2 pad with CO2 flowing to keep them immobilized during topical applications. A hand microapplicator equipped with 1 cc glass syringe with a 30 gouge straight needle was used for the application of droplet. 0.25 μl droplet of toxin solution per mosquito was pushed out from the needle and gently applied to the ventral side of the mosquito abdomen. The treated mosquitoes were put into a 2.5 oz. clear cup with moisture filter paper and lid with breathing holes. Score the treated mosquitoes for paralysis or death within 24 hours post-application. […] FIG. 13.

[1] = incubation of purified peptide in fermentation beer with untransformed K. lactis; type: physicochemical; conditions: 8 days at room temperature
Protocol: The pLB102-YCT-18 strain's apparent expression of two Av3+2 peptides, i.e., Av3+2 and Av3+2−C1, raised the question as to whether the C-Val cleavage observed in Peak 1 (SEQ ID NO: 19) occurred during peptide expression and secretion, or whether it occurred in the spent medium/fermentation beer as a result of endogenous proteases secreted from K. lactis. To answer this question, Av3+2 peptide was purified according to the abovementioned methods, and incubated with the fermentation beer in concert with untransformed K. lactis strain (i.e., a null strain) for 8 days at room temperature (RT). FIG. 4.

[2] = test system: houseflies (Musca domestica); assay: housefly injection assay; type: in vivo; conditions: for toxicity to houseflies by injection / activities in fly injection assay: in vivo; for lowest dose to produce knock-down activity: within the first 4 hours post injection; for recovery of the knock-down flies: 100 pmol/g dose; for lethal activity to houseflies: injection; for effect on housefly mortality: dose of 10, 50, and 100 nmol/g for 24 hours
Protocol: An exemplary housefly injection bioassay is as follows: conditioned media is serially diluted to generate full dose-response curves from the housefly injection bioassay. Before injection, adult houseflies (Musca domestica) are immobilized with CO2, and 12-18 mg houseflies are selected for injection. A microapplicator, loaded with a 1 cc syringe and 30-gauge needle, is used to inject 0.5 μL per fly, doses of serially diluted conditioned media samples into houseflies through the body wall of the dorsal thorax. The injected houseflies are placed into closed containers with moist filter paper and breathing holes on the lids, and they are examined by knock-down ratio or by mortality scoring at 24 hours post-injection. Normalized yields are calculated. Peptide yield means the peptide concentration in the conditioned media in units of mg/L. However, peptide yields are not always sufficient to accurately compare the strain production rate. […] The cell density is represented by the light absorbance at 600 nm with a unit of “A” (Absorbance unit).
A Housefly injection assay was performed to compare the activity of Av3b with GenScript Synthetic Av3b. FIG. 33. Adult houseflies were immobilized in CO2 for 10 minutes and then transferred to a CO2 pan to keep them immobilized. Flies with weight between 12-20 mg were picked for injection. The synthetic peptides were diluted in water to proper doses for injection. 0.5 μL peptide solution was injected into housefly at the dorsal thorax using a hand-microapplicator with 1 cc all-glass syringe with 30 gouge straight needle. The injected flies were then transferred to a 2 oz transparent portion container with a wet #4 filter paper. Fly score was accessed at 2 hour, 3 hour, 4 hour and 24 hour post-injection. […] Core-5 and Core-4 synthetic polypeptides were also evaluated in the housefly injection assay. FIG. 34. […] FIG. 36.

[3] = test system: crustacean and insect sodium channels; conditions: cited from earlier work
houseflies = assay: housefly feeding assay (oral toxicity); type: in vivo
Protocol: The oral toxicity of Av3+2−C1 peptide was evaluated in the housefly feeding assay by mixing 20 PPT Av3+2−C1 with fly food (1:1 sugar: dry milk) and observed for 96 hours. Knock-down and dead flies were observed starting at 24-hour post-feeding and accumulated with time. FIG. 19. Unlike the housefly injection bioassay, recovery from paralysis in the feeding assay was not observed, likely due to the fact that the houseflies were continuously dosed in the later bioassay. FIG. 20.

[4] = 1000 pmol/g dose, overnight observation
[5] = Table 9, synthetic polypeptides

In the case of KSCCPCYWGGCPWGQNCYPEGCSGPKV [Av3a], the “activity relative to native Av3” value (Aedes aegypti) is reported as “the same as native Av3”, the “Knock-down 50 at 3 hr, Average” value (Aedes aegypti) is reported as 109.05 ppm and the “KD50 at 3-hours” value (Aedes aegypti) is reported as 38.8 ppm.
In the case of “GSRSCCPCYWGGCPWGQNCYPEGCSGPKV (not fully specified; ends and bridges not checked) [Av3+2]”, the “C-Val cleavage / stability” value [1] is reported as “did not result in any apparent C-Val cleavage”, the “Knock-down 50 at 3 hr, Average” value (Aedes aegypti) is reported as 281.5 ppm and the “Knock-down 50 at 3 hr” value (Aedes aegypti) is reported as 230 ppm and 235.7 ppm and 347.7 ppm and 312.6 ppm. For the same substance, the “KD50 relative to that observed for native Av3” value (Aedes aegypti; at 3-hours) was “roughly 5 fold”, the “paralysis and kill of adult mosquitos upon topical application” value (Aedes aegypti) was “fast paralyze and eventually kill adult mosquitoes” and the synergy with permethrin (Aedes aegypti; peptide 200 ppm) was “some synergy”. The “KD50 at 3-hours” value (Aedes aegypti) was 235.71 ppm and 312.57 ppm and 200-300 ppm and 229.9 ppm, the “recovery after maximum knock-down” value (Aedes aegypti; topical application) was “limited recovery thereafter; also recorded: recovery observed over time; also recorded: not much recovery effects observed thereafter” and the “recovery of knock-down flies” value [2, 4] was “Recovery of the knock-down flies was observed”. The “recovery of knock-down flies” value ([2]; 5000 and 20000 pmol/g doses) was “No recovery was observed”, the “paralysis effect in combination with fermentation beer from AaIT1 expression K. lactis strain” value ([2]; Av3+2 peptide at 500 pmol/g dose) was “synergistic instead of additive paralysis effect” and the “KD50 at 4-hours” value ([2]; housefly injection) was 490 pmol/g. The “toxicity to houseflies by injection” value [2] was “toxic to houseflies” and the “lowest dose to produce knock-down activity” value [2] was 100 pmol/g.
With “KACCPCYWGGCPWGAACYPAGCAAAK (Pharmacophore mutant) [Core 5]” the “KD50 at 3 hr” value [2, 5] was 1621 pmol/g and the activity reduced ([2]; housefly injection) was “around 3 fold”.
In the case of “RSCCPCYWGGCPWGQNCYPEGCSGPK (ends and bridges not checked; cysteine pairing not given here) [Av3-C1]”, the “recovery of the knock-down flies” value ([2]; overnight observation) is reported as “very rare”, the “KD50 at 4-hours” value ([2]; housefly injection) is reported as 521 pmol/g and the “lethal activity to houseflies” value [2] is reported as “no potent lethal activity”.
With PYWPWY (Pharmacophore mutant) [Core-1] the “effect on housefly mortality” value [2] was “did not appear to have an effect on housefly mortality”.
In the case of KSCCPCYWGGCPWGQNCYPEGCSGPK [Av3b], the “activity relative to native Av3” value (Aedes aegypti; listed as Av3a-C1) is reported as “two-fold less active; also recorded: about twice as less active”, the “Knock-down 50 at 3 hr, Average” value (Aedes aegypti) is reported as 81.63 ppm and the “Knock-down 50 at 3 hr” value (Aedes aegypti; listed as Av3a-C1) is reported as 86.9 ppm and 86.1 ppm and 71.9 ppm. For the same substance, the “KD50 at 3-hours” value (Aedes aegypti) was 71.9 ppm, the “KD50 at 3 hr” value ([2]; Table 8, AAA Calibrate stock at 32.5 mg/mL) was 172.22 pmol/g and the “KD50 at 3 hr” value ([2]; Table 8, non-AAA stock at 50 mg/mL) was 265.21 pmol/g.
In the case of “KPYWPWYKV (Pharmacophore mutant) [Core-2]”, the “effect on housefly mortality” value [2] is reported as “did not appear to have an effect on housefly mortality”.
In the case of “KPYWPWYK (Pharmacophore mutant) [Core-3]”, the “effect on housefly mortality” value [2] is reported as “did not appear to have an effect on housefly mortality”.
In the case of “RSCCPCYWGGCPWGQNCYPEGCSGPKV [Av3, reference compound]”, the “Knock-down 50 at 3 hr, Average” value (Aedes aegypti) is reported as 45.98 ppm, the synergy with permethrin (Aedes aegypti) is reported as “some synergy” and the “KD50 at 3-hours” value (Aedes aegypti; listed as Native Av3) is reported as 58 ppm and 42.6 ppm. The “recovery after maximum knock-down” value (Aedes aegypti; topical application) was “no obvious recovery observed thereafter”, the “time at which knock-down effect reached its maximum” value (Aedes aegypti; topical application) was 1 h and the “selectivity for crustacean and insect sodium channels” value [3] was “high selectivity”. The “recovery of the knock-down flies” value ([2]; overnight observation) was “very rare”, the “KD50 at 4-hours” value ([2]; housefly injection) was 606 pmol/g and the “toxicity to houseflies by injection” value [2] was “toxic to houseflies”. For the same substance, the “lethal activity to houseflies” value [2] was “no potent lethal activity”.
With “GSRSCCPCYWGGCPWGQNCYPEGCSGPK (ends and bridges not checked; cysteine pairing not given here) [Av3+2−C1]” the “Knock-down 50 at 3 hr, Average” value (Aedes aegypti) was 747.9 ppm, the “Knock-down 50 at 3 hr” value (Aedes aegypti) was 952.7 ppm and 543.1 ppm and the “paralysis and kill of adult mosquitos upon topical application” value (Aedes aegypti) was “fast paralyze and eventually kill adult mosquitoes”. The “KD50 at 3-hours” value (Aedes aegypti) was 543.12 ppm and 500-900 ppm and 952.69 ppm, the “recovery after maximum knock-down” value (Aedes aegypti; topical application) was “recovery was observed thereafter” and the “knock-down and dead flies first observed post-feeding” value (houseflies; 20 PPT mixed with fly food) was 24 h. The “oral toxicity to houseflies” value (houseflies; 20 PPT mixed with fly food, observed for 96 hours) was “toxic to houseflies when consumed and/or upon oral contact”, the recovery from paralysis (houseflies; continuous feeding, 20 PPT) was “not observed” and the “recovery of knock-down flies” value [2, 4] was “Recovery of the knock-down flies was observed”. The “recovery of knock-down flies” value ([2]; 5000 and 20000 pmol/g doses) was “No recovery was observed”, the “KD50 at 4-hours” value ([2]; housefly injection) was 651 pmol/g and the “lowest dose to produce knock-down activity” value [2] was 500 pmol/g.
For “KSCCPCYWGGCPWGQNCYPEGCSGPK [Synthetic Av3b]”, the “KD50 at 3 hr” value ([2]; Table 8, synthetic peptide) was 633.02 pmol/g, the “KD50 at 3 hr” value [2, 5] was 540 pmol/g and the “activities in fly injection assay” value [2] was “showed activities in fly injection assay”.
With “KACCPCYWAACPWAAACYAAACAAAK (Pharmacophore mutant) [Core 4]” the “activities in fly injection assay” value [2] was “dramatically reduced activities”.
